Assays:
proMMP9 = molecular target: T1, proMMP9 (Homo sapiens, UniProt P14780); test: Activation of proMMP9 by human fetal lung fibroblast (HFL-1) cultures (Western blot); type: cell-based; details: 3.3 μM, 30 nM elastase, 72 hrs, mAb-L51/82
T1 construct: endogenous in cells; host or cells: HFL-1 (ATCC CCL-153), TNFα-stimulated, with 30 nM human neutrophil elastase added
Procedure: Example 2 was assessed additionally for ability to block the maturation of proMMP9 to active MMP9 in cultures of human fetal lung fibroblasts (HFL-1, American Type Culture Collection #CCL-153). Unlike rat synoviocytes, HFL-1 cells were unable to process proMMP9 to the active form without addition of neutrophil elastase. […] Rather, the function of elastase in this assay may be to inactivate tissue inhibitors of matrix metalloproteinases (TIMPs) that repress endogenous pathways of MMP9 activation (Skold, Liu et al. 1999).
HLF-1 were maintained in monolayer culture in DMEM with 10% FCS and were used between passage numbers 5-15. HLF-1 were embedded in collagen gels as described for rat SCW synoviocytes (vida supra). Half mL gels containing 0.4 million cells were dislodged into wells of 12 well Costar plates containing 1 mL/well of DMEM adjusted to contain 0.05% BSA and 100 ng/mL human TNFα (R&D Systems Cat #210-TA/CF). After overnight culture (37° C. and 5% CO2) wells were adjusted to contain an additional 0.5 mL of DMEM containing 0.05% BSA and with or without 13.2 μM Example 2 (final concentration was 3.3 μM Example 2). Next, cultures were adjusted to contain 30 nM human elastase (Innovative Research). The plates were cultured an additional 72 hrs, at which time MMP9 secreted into the conditioned media was bound to gelatin-sepharose and evaluated by Western blot analysis as described for the rat synoviocyte cultures (vida supra). mAb-51/82 detected three forms of MMP9 in HFL-1 cultures.
A second experiment was performed to determine if the 80 kD form was mature active MMP9 and to determine the potency of Example 2 as an inhibitor of MMP9 maturation in this assay. HFL-1 cells embedded in collagen gels were cultured as described above in the presence of TNFα overnight and the cultures were then adjusted to contain 30 nM elastase and graded concentrations of Example 2 for an additional 72 hrs at which time MMP9 secreted into the conditioned media was bound to gelatin-sepharose and evaluated by Western blot analysis for active MMP9 using pAb-1246 raised against the N-terminal neoepitope of active MMP9 (Table 5). In the absence of Example 2, pAb-1246 readily detected MMP9 with an electrophoretic mobility of approximately 80 kD. […] Inhibition occurred over a dose range with an IC50 of approximately 0.3 μM Example 2.

[1] = tested on: rats with SCW-induced arthritis; test: Efficacy in rats with SCW-induced arthritis (ankle thickness, clinical scores); type: in vivo, rat; details: 5, 20, 50 mg/kg BID oral, Day 18-26
Procedure: SCW PG-PS 10S (Beckton Dickinson Cat#210866) suspended in saline was vortexed for 30 seconds and sonicated for 3 min with a probe type sonicator prior to injection. Female Lewis (LEW/N) rats, 5-6 weeks of age (80-100 g) were injected (i.p.) with SCW PG-PS (15 μg of rhamnose/gram BW) in the lower left quadrant of the abdomen using a 1 mL syringe fitted with a 23-gauge needle. Control (disease-free) rats were treated in a similar manner with sterile saline. Control rats were sacrificed on day 5 and groups of SCW-injected rats were sacrificed on day 5 when acute inflammation was maximal or on day 18 when chronic inflammation was established.
To induce arthritis, Female Lewis (LEW/N) rats, 5-6 weeks of age (80-100 g) were injected (i.p.) with SCW PG-PS as described above. Eighteen days later, arthritis was well established. Calipers were used to measure the width (anterior to posterior surface) of the left and right hind ankles of each rat. Each ankle was measured 3 times and averaged, and treatment groups were randomized based on ankle thickness (Table 6). Commencing on day 18, randomized groups of arthritic rats (n=5 rats/group) received vehicle or 5, 20, or 50 mg/kg Example 2 BID by oral gavage. Vehicle consisted of an aqueous mixture containing 2% (v:v) N-methylpyrrolidone, 5% (v:v) glycerine, and 20% (w:v) captisol. Treatment continued daily through the morning of day 26. […]

T1 sequence (P14780 20-707 limits assumed): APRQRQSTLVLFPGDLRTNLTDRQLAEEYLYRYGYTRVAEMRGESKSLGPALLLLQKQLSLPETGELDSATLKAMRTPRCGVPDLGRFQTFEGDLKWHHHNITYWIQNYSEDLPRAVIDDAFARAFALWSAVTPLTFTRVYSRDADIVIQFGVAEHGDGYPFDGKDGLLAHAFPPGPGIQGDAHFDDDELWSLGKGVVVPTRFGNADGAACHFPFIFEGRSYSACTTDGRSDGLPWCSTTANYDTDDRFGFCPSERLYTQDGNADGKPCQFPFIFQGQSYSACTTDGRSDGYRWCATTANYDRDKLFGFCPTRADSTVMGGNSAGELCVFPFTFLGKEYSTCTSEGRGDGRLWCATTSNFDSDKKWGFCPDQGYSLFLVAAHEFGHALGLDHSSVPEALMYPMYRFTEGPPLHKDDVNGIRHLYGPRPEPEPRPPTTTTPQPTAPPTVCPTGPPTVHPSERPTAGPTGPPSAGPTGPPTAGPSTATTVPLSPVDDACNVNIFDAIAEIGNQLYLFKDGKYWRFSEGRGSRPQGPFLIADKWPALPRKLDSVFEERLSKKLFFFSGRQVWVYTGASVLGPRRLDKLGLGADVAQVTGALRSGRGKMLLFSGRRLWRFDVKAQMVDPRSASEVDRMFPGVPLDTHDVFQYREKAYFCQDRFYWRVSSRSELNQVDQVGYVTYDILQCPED

- Percent of total signal 80 kD (proMMP9): 7%
- Percent of total signal 86 kD (proMMP9): 47%
- Percent of total signal 100 kD (proMMP9): 46%
- Signal Total (proMMP9): 91346 INT * mm^2
SMILES: Cc1nc(C)c(-c2csc(Nc3cc(S(N)(=O)=O)ccc3OC(C)C)n2)s1 [Example 2, 3-(2′,4′-Dimethyl-[4,5′]bithiazolyl-2-ylamino)-4-isopropoxy-benzenesulfonamide.HBr]
- Effect on ankle thickness measurements [1]: dose-dependent decrease
- Effect on clinical score measurements [1]: dose dependent decrease
